Reference: patent US10167262B2, “Herbicidal substituted 3-arylpyrazoles” (FMC CORPORATION, priority 2014, dated 2019)

Assays:
Assay type in all cases: in vivo
[1] = tested on: barnyardgrass (Echinochloa crus-galli); assay: Test B flooded paddy test, plant response rating 0-100; settings: Flood, 250 g ai/ha; scale 0 to 100 (0 no effect, 100 complete control); 13 to 15 days
How it was run: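 Visual injury ratings against untreated controls, taken 13 to 15 days after compound was added to paddy water standing 3 cm above the soil.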

[2] = tested on: Brazilian crabgrass (Digitaria horizontalis); assay: Test E pre-/postemergence greenhouse test, plant response rating 0-100; settings: Postemergence, scale 0 to 100
How it was run: (§1)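 Visual control score, 0–100 relative to untreated plants, recorded 14–21 days after spraying. Treatments: preemergence on silt loam seedbeds and postemergence at the 1- to 4-leaf stage, with compound in surfactant-containing solvent.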

[3] = tested on: Italian ryegrass (Lolium multiflorum); assay: as above; settings: scale 0 to 100; for Plant response rating, Ryegrass, Italian: Postemergence; for Ryegrass, Italian plant response rating: Preemergence
How it was run: as §1

[4] = tested on: arrowleaf sida (Sida rhombifolia); assay: as above; settings: for Plant response rating, Arrowleaf Sida: Postemergence; for Arrowleaf Sida plant response rating: Preemergence
How it was run: as §1

[5] = tested on: barnyardgrass (Echinochloa crus-galli); assay: as above; settings: scale 0 to 100; for Plant response rating, Barnyardgrass: Postemergence; for Barnyardgrass plant response rating: Preemergence
How it was run: as §1

corn (Zea mays) = assay: as above; settings: scale 0 to 100; for Plant response rating, Corn: Postemergence; for Corn plant response rating: Preemergence
How it was run: as §1

[6] = tested on: dayflower (Virginia (VA) dayflower, Commelina virginica); assay: as above; settings: scale 0 to 100; for Plant response rating, Dayflower, VA: Postemergence
How it was run: as §1

[7] = tested on: fall panicum (Panicum dichotomiflorum); assay: as above; settings: scale 0 to 100; for Plant response rating, Panicum, Fall: Postemergence; for Panicum, Fall plant response rating: Preemergence
How it was run: as §1

[8] = tested on: hairy beggarticks (Bidens pilosa); assay: as above; settings: scale 0 to 100; for Plant response rating, Beggarticks: Postemergence; for Beggarticks plant response rating: Preemergence
How it was run: as §1

[9] = tested on: palmer pigweed (Amaranthus palmeri); assay: as above; settings: scale 0 to 100; for Plant response rating, Pigweed, Palmer: Postemergence; for Pigweed, Palmer plant response rating: Preemergence
How it was run: as §1

[10] = tested on: sandbur (southern sandbur, Cenchrus echinatus); assay: as above; settings: scale 0 to 100; for Plant response rating, Sandbur: Postemergence; for Sandbur plant response rating: Preemergence
How it was run: as §1

[11] = tested on: wild poinsettia (Euphorbia heterophylla); assay: as above; settings: scale 0 to 100; for Plant response rating, Poinsettia, Wild: Postemergence; for Poinsettia, Wild plant response rating: Preemergence
How it was run: as §1

For `O=C(c1ccccc1)c1cn(S(=O)(=O)C(F)(F)F)nc1-c1cc(Cl)cc(Cl)c1` [Compound 2], the “Plant response rating, Barnyardgrass” value [1] was 0, the “Plant response rating, Crabgrass, Brazil” value ([2]; 31 g ai/ha) was 0 and the “Plant response rating, Crabgrass, Brazil” value ([2]; 62 g ai/ha) was 0. The “Plant response rating, Crabgrass, Brazil” value ([2]; 125 g ai/ha) was 0, the “Plant response rating, Crabgrass, Brazil” value ([2]; 250 g ai/ha) was 0 and the “Plant response rating, Crabgrass, Brazil” value ([2]; 500 g ai/ha) was 0. The “Plant response rating, Ryegrass, Italian” value ([3]; 31 g ai/ha) was 0, the “Plant response rating, Ryegrass, Italian” value ([3]; 62 g ai/ha) was 0 and the “Plant response rating, Ryegrass, Italian” value ([3]; 125 g ai/ha) was 0. For the same compound, the “Plant response rating, Ryegrass, Italian” value ([3]; 250 g ai/ha) was 0, the “Plant response rating, Ryegrass, Italian” value ([3]; 500 g ai/ha) was 0 and the “Ryegrass, Italian plant response rating” value ([3]; 31 g ai/ha) was 0. The “Ryegrass, Italian plant response rating” value ([3]; 62 g ai/ha) was 0, the “Ryegrass, Italian plant response rating” value ([3]; 125 g ai/ha) was 0 and the “Ryegrass, Italian plant response rating” value ([3]; 250 g ai/ha) was 0. The “Ryegrass, Italian plant response rating” value ([3]; 500 g ai/ha) was 0, the “Plant response rating, Arrowleaf Sida” value ([4]; 31 g ai/ha, scale 0 to 100) was 95 and the “Plant response rating, Arrowleaf Sida” value ([4]; 62 g ai/ha, scale 0 to 100) was 95. For the same compound, the “Plant response rating, Arrowleaf Sida” value ([4]; 125 g ai/ha, scale 0 to 100) was 95, the “Plant response rating, Arrowleaf Sida” value ([4]; 250 g ai/ha, scale 0 to 100) was 95 and the “Plant response rating, Arrowleaf Sida” value ([4]; 500 g ai/ha, scale 0 to 100 (0 no effect, 100 complete control)) was 98. The “Arrowleaf Sida plant response rating” value ([4]; 31 g ai/ha, scale 0 to 100) was 35, the “Arrowleaf Sida plant response rating” value ([4]; 62 g ai/ha, scale 0 to 100) was 35 and the “Arrowleaf Sida plant response rating” value ([4]; 125 g ai/ha, scale 0 to 100) was 50. For the same compound, the “Arrowleaf Sida plant response rating” value ([4]; 250 g ai/ha, scale 0 to 100) was 98, the “Arrowleaf Sida plant response rating” value ([4]; 500 g ai/ha, scale 0 to 100) was 95 and the “Plant response rating, Barnyardgrass” value ([5]; 31 g ai/ha) was 0. The “Plant response rating, Barnyardgrass” value ([5]; 62 g ai/ha) was 0, the “Plant response rating, Barnyardgrass” value ([5]; 125 g ai/ha) was 0 and the “Plant response rating, Barnyardgrass” value ([5]; 250 g ai/ha) was 0. The “Plant response rating, Barnyardgrass” value ([5]; 500 g ai/ha) was 0, the “Barnyardgrass plant response rating” value ([5]; 31 g ai/ha) was 0 and the “Barnyardgrass plant response rating” value ([5]; 62 g ai/ha) was 0. For the same compound, the “Barnyardgrass plant response rating” value ([5]; 125 g ai/ha) was 0, the “Barnyardgrass plant response rating” value ([5]; 250 g ai/ha) was 0 and the “Barnyardgrass plant response rating” value ([5]; 500 g ai/ha) was 0. The “Plant response rating, Corn” value (corn (Zea mays); 31 g ai/ha) was 0, the “Plant response rating, Corn” value (corn (Zea mays); 62 g ai/ha) was 0 and the “Plant response rating, Corn” value (corn (Zea mays); 125 g ai/ha) was 0. The “Plant response rating, Corn” value (corn (Zea mays); 250 g ai/ha) was 0, the “Plant response rating, Corn” value (corn (Zea mays); 500 g ai/ha) was 0 and the “Corn plant response rating” value (corn (Zea mays); 31 g ai/ha) was 0. The “Corn plant response rating” value (corn (Zea mays); 62 g ai/ha) was 0, the “Corn plant response rating” value (corn (Zea mays); 125 g ai/ha) was 0 and the “Corn plant response rating” value (corn (Zea mays); 250 g ai/ha) was 0. The “Corn plant response rating” value (corn (Zea mays); 500 g ai/ha) was 0, the “Plant response rating, Dayflower, VA” value ([6]; 31 g ai/ha) was 0 and the “Plant response rating, Dayflower, VA” value ([6]; 62 g ai/ha) was 0. For the same compound, the “Plant response rating, Dayflower, VA” value ([6]; 125 g ai/ha) was 0, the “Plant response rating, Dayflower, VA” value ([6]; 250 g ai/ha) was 0 and the “Plant response rating, Dayflower, VA” value ([6]; 500 g ai/ha) was 0. For the same compound, the “Dayflower, VA plant response rating” value ([6]; Preemergence, 62 g ai/ha) was 0, the “Plant response rating, Panicum, Fall” value ([7]; 31 g ai/ha) was 0 and the “Plant response rating, Panicum, Fall” value ([7]; 62 g ai/ha) was 0. For the same compound, the “Plant response rating, Panicum, Fall” value ([7]; 125 g ai/ha) was 0, the “Plant response rating, Panicum, Fall” value ([7]; 250 g ai/ha) was 25 and the “Plant response rating, Panicum, Fall” value ([7]; 500 g ai/ha) was 40. For the same compound, the “Panicum, Fall plant response rating” value ([7]; 31 g ai/ha) was 0, the “Panicum, Fall plant response rating” value ([7]; 62 g ai/ha) was 0 and the “Panicum, Fall plant response rating” value ([7]; 125 g ai/ha) was 0. The “Panicum, Fall plant response rating” value ([7]; 250 g ai/ha) was 0, the “Panicum, Fall plant response rating” value ([7]; 500 g ai/ha) was 0 and the “Plant response rating, Beggarticks” value ([8]; 31 g ai/ha) was 80. The “Plant response rating, Beggarticks” value ([8]; 62 g ai/ha) was 90, the “Plant response rating, Beggarticks” value ([8]; 125 g ai/ha) was 100 and the “Plant response rating, Beggarticks” value ([8]; 250 g ai/ha) was 100. For the same compound, the “Plant response rating, Beggarticks” value ([8]; 500 g ai/ha) was 100, the “Beggarticks plant response rating” value ([8]; 31 g ai/ha) was 0 and the “Beggarticks plant response rating” value ([8]; 62 g ai/ha) was 0. For the same compound, the “Beggarticks plant response rating” value ([8]; 125 g ai/ha) was 0, the “Beggarticks plant response rating” value ([8]; 250 g ai/ha) was 0 and the “Beggarticks plant response rating” value ([8]; 500 g ai/ha) was 0. The “Plant response rating, Pigweed, Palmer” value ([9]; 31 g ai/ha) was 65, the “Plant response rating, Pigweed, Palmer” value ([9]; 62 g ai/ha) was 85 and the “Plant response rating, Pigweed, Palmer” value ([9]; 125 g ai/ha) was 90. For the same compound, the “Plant response rating, Pigweed, Palmer” value ([9]; 250 g ai/ha) was 95, the “Plant response rating, Pigweed, Palmer” value ([9]; 500 g ai/ha) was 100 and the “Pigweed, Palmer plant response rating” value ([9]; 31 g ai/ha) was 0. The “Pigweed, Palmer plant response rating” value ([9]; 62 g ai/ha) was 0, the “Pigweed, Palmer plant response rating” value ([9]; 125 g ai/ha) was 0 and the “Pigweed, Palmer plant response rating” value ([9]; 250 g ai/ha) was 0. For the same compound, the “Pigweed, Palmer plant response rating” value ([9]; 500 g ai/ha) was 100, the “Plant response rating, Sandbur” value ([10]; 31 g ai/ha) was 0 and the “Plant response rating, Sandbur” value ([10]; 62 g ai/ha) was 0. The “Plant response rating, Sandbur” value ([10]; 125 g ai/ha) was 0, the “Plant response rating, Sandbur” value ([10]; 250 g ai/ha) was 0 and the “Plant response rating, Sandbur” value ([10]; 500 g ai/ha) was 0. For the same compound, the “Sandbur plant response rating” value ([10]; 31 g ai/ha) was 0, the “Sandbur plant response rating” value ([10]; 62 g ai/ha) was 0 and the “Sandbur plant response rating” value ([10]; 125 g ai/ha) was 0. For the same compound, the “Sandbur plant response rating” value ([10]; 250 g ai/ha) was 0, the “Sandbur plant response rating” value ([10]; 500 g ai/ha) was 0 and the “Plant response rating, Poinsettia, Wild” value ([11]; 31 g ai/ha) was 0. The “Plant response rating, Poinsettia, Wild” value ([11]; 62 g ai/ha) was 0, the “Plant response rating, Poinsettia, Wild” value ([11]; 125 g ai/ha) was 0 and the “Plant response rating, Poinsettia, Wild” value ([11]; 250 g ai/ha) was 0. For the same compound, the “Plant response rating, Poinsettia, Wild” value ([11]; 500 g ai/ha) was 0, the “Poinsettia, Wild plant response rating” value ([11]; 62 g ai/ha) was 0 and the “Poinsettia, Wild plant response rating” value ([11]; 125 g ai/ha) was 0. The “Poinsettia, Wild plant response rating” value ([11]; 250 g ai/ha) was 0 and the “Poinsettia, Wild plant response rating” value ([11]; 500 g ai/ha) was 0.
